2 molecules from patent publication US20080105961A1, “Ligands of the Molecule Fit (Agt-121) and their Pharmaceutical Use” (priority 2004, published 2008) can be followed below.

Marks after values point to notes of the source that are not given here.

For test [1], the system named is FIT mRNA. The experiment in a line: ICV infusion of FIT antisense ODN in Psammomys obesus: food intake and body weight. The class given is in vivo. How it is done: To further investigate the orexigenic properties of FIT intracerebroventricular (ICV) antisense suppression of FIT was performed. This involved the infusion of FIT antisense oligonucleotides (ODNs) directly into the lateral ventricle space of the brain to suppress endogenous FIT mRNA levels. The effects of this treatment on food intake and body weight were measured and compared to control animals infused with a jumbled sequence ODN, or saline alone. 18 week old, male, lean, normal glucose tolerant (nGT) P. obesus animals were utilised for this study and infused with either saline, FIT antisense ODN, or jumbled ODN at 24 μg/day for four days. The sequence of the FIT antisense ODN was 5′-mu*mg*mg*mc*ma*g*a*a*t*t*g*c*a*mu*mu*mc*mc*mu*-3′, and the jumbled ODN 5′-mc*mg*mc*ma*mc*t*t*a*g*c*t*a*c*mu*mu*mg*mc*mu-3′, where m indicates the presence of a 2′O-Methyl-modified base, and * indicates a phosphorothioate linkage.

The subject of another test is melanocortin receptor. The experiment in a line: Feeding response to ICV injection of SHU9119 after three days of ODN or saline infusion. The class given is in vivo, Sprague Dawley rats. An excerpt:
To further analyse the link between FIT and the melanocortin system, the feeding response of Sprague Dawley rats to an ICV injection of SHU9119, a melanocortin receptor antagonist and known feeding stimulator was investigated. After three days of FIT antisense treatment, jumbled oligonucleotide or saline infusion, responses were compared to rats receiving an ICV injection of saline vehicle rather than SHU9119.

Test [2] deals with FIT mRNA. The experiment in a line: Hypothalamic FIT gene expression by semi-quantitative RT-PCR in ICV antisense-treated rats. The class given is in vivo, Sprague Dawley rats. Conditions: hypothalamus. As for the experimental part: To confirm endogenous suppression of FIT in antisense-treated Sprague Dawley rats, FIT mRNA in the hypothalamus of these animals was measured.
The test system of test [3] is FIT mRNA. Put plainly: Metabolic heat production by indirect calorimetry (FIG. 1). The class given is in vivo, Sprague Dawley rats. Conditions: Sprague Dawley rats, after three days of treatment. An excerpt: FIG. 1 is a graphical representation of metabolic heat production in Sprague Dawley rats after three days of FIT antisense-treatment compared to jumbled ad libitum fed and jumbled pair fed rats. *p<0.05 pair fed compared to jumbled group, #p<0.05 pair fed compared to FIT antisense-treated group, ̂p<0.05 compared to both jumbled and FIT antisense-treated groups. Data are mean ±SEM.
To further dissect the nature of the inability to reduce TEE levels after FIT antisense treatment, metabolic heat production was measured by indirect calorimetry.

Test [4] has as its system FIT mRNA. Put plainly: Pair-feeding study with indirect calorimetry (24 h): body weight, food intake, total energy expenditure. The class given is in vivo, Sprague Dawley rats. How it is done:
To investigate the mechanism of weight loss after FIT antisense treatment, a group of Sprague Dawley rats were pair fed to the average daily food intake levels of FIT antisense-treated rats, and indirect calorimetry (24 h) was performed before and after FIT antisense or jumbled ODN ICV infusion.
Total energy expenditure (TEE) was calculated from measurements of oxygen consumption and carbon dioxide production using indirect calorimetry (Ferrannini, 1988). Due to differences in body weight between the three groups of rats, TEE levels were calculated relative to whole body mass of the animals. […] FIT antisense-treated rats therefore have an inappropriately high level of energy expenditure for their body weight.

Test [5] has as its system FIT mRNA. The experiment in a line: ICV infusion of FIT antisense ODN in Sprague Dawley rats: food intake and body weight. The class given is in vivo. As for the experimental part: To confirm the appetite-suppressing and weight-reducing effects of central FIT suppression in an animal model other than P. obesus, the inventors performed the same experiments in Sprague Dawley rats. Male, 12 week old Sprague Dawley rats were infused with either saline, FIT antisense ODN, or jumbled ODN at 24 μg/day for four days. The sequence of the FIT antisense ODN and the jumbled ODN are the same as in Example 2 above.

The target in the next test is T1, MC4R (Rattus norvegicus, UniProt P70596).
T1 construct: from tissue; host or cells: living Sprague Dawley rats (brain)
T1 sequence (P70596 whole entry): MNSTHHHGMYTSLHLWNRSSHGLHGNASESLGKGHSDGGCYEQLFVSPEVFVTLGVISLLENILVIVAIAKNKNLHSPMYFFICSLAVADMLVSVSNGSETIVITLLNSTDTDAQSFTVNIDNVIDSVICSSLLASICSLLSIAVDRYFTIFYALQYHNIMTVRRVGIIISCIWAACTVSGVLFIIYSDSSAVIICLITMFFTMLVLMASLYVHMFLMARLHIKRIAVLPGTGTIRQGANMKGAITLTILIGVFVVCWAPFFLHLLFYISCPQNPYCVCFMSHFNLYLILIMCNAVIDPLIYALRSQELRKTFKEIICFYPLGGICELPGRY
Put plainly: Feeding response to MT II after ODN or saline infusion. Conditions: mean ± SEM. The class given is in vivo, Sprague Dawley rats. As for the experimental part: To further investigate this relationship, antisense suppression of FIT in Sprague Dawley rats was again performed and these animals' responses to administration of the α-MSH analog MT II, a synthetic agonist of the MC4R and known suppressor of feeding. MT II effects on food intake and body weight in saline and jumbled ODN-treated control rats, as well as in FIT antisense-treated rats was measured.

A further test has as its target T2, SH3GL2; endophilin 1 (human, UniProt Q99962 1-352).
T2 construct: Prey clone from a human brain cDNA library; not shown: not specified
Put plainly: yeast two-hybrid screen of a human brain cDNA library (12 clones). An excerpt: The inventors utilised a yeast two-hybrid system which incorporates modifications by Chevray and Nathans (1992), and Vidal et al. (1996) to screen a human brain cDNA library.

Where [6] appears, read: ICV 24 μg/day, day 1, mean ± SEM.
Setting [7] is: ICV 24 μg/day, day 2, mean ± SEM.
Where [8] appears, read: ICV 24 μg/day, day 3, mean ± SEM.
Where [9] appears, read: ICV 24 μg/day, day 4, mean ± SEM.
Where [10] appears, read: baseline body weight, mean ± SEM.
Where [11] appears, read: change compared to day 0, mean ± SEM.
The mark [12] stands for this setting: not pair fed (jumbled group ad libitum fed), mean ± SEM.

T2 sequence (Q99962 whole entry): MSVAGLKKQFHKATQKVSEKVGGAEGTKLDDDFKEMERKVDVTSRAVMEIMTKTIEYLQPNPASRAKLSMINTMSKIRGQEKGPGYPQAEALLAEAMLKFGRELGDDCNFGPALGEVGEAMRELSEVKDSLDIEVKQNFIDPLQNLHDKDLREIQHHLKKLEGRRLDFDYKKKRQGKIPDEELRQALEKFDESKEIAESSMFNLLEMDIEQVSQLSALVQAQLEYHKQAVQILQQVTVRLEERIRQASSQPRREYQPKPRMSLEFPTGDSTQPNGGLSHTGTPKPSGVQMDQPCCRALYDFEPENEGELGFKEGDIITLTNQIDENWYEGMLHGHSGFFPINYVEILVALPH

In the case of “5′-mu*mg*mg*mc*ma*g*a*a*t*t*g*c*a*mu*mu*mc*mc*mu*-3′ [FIT antisense]”, the “Cumulative food intake, Day 1 Food” value with FIT mRNA [1] (setting [6]) is given as 6.5 ± 1.6^a g; in the test on FIT mRNA [5] (setting [6]), 8.6 ± 1.6^a,b g. For the same molecule, the “Cumulative food intake, Day 2 Food” value with FIT mRNA [1] (setting [7]) was 12.3 ± 2.9^a g; with FIT mRNA [5] (setting [7]) it was 23.4 ± 2.6^a,b g. Also, the “Cumulative food intake, Day 3 Food” value with FIT mRNA [1] (setting [8]) is 18.9 ± 3.9^a g; in the test on FIT mRNA [5] (setting [8]) it was 38.3 ± 3.6^a,b g. Moreover, the results for the “Cumulative food intake, Day 4 Food” value with FIT mRNA [1] (setting [9]) and in the test on FIT mRNA [5] (setting [9]) were 27.4 ± 4.4^a,b g and 55.0 ± 4.9^a,b g, respectively. In addition, the “Day 1 BW” value with FIT mRNA [1] (ICV 24 μg/day, mean ± SEM) worked out at 195 ± 7 g; in the test with FIT mRNA [5] (ICV 24 μg/day, mean ± SEM) it was 425 ± 37 g. The “Day 2 BW” value with FIT mRNA [1] (ICV 24 μg/day, mean ± SEM) amounted to 194 ± 8 g; with FIT mRNA [5] (ICV 24 μg/day, mean ± SEM), 415 ± 37 g. In addition, the “Day 3 BW” value in the test on FIT mRNA [1] (ICV 24 μg/day, mean ± SEM) is 192 ± 7 g; with FIT mRNA [5] (ICV 24 μg/day, mean ± SEM) it was 410 ± 38^a g. For the same molecule, the “Day 4 BW” value was 190 ± 7 g in the test on FIT mRNA [1] (ICV 24 μg/day, mean ± SEM); 338 ± 12^a,c g in the test on FIT mRNA [4] (setting [12]); 408 ± 37^a g in the test on FIT mRNA [5] (ICV 24 μg/day, mean ± SEM). Further, in the test on FIT mRNA [1] (ICV, after four days of treatment), the “cumulative food intake compared to jumbled oligonucleotide-infused and saline-treated control animals” value is on record as “significantly reduced”. Also, the “Day 0 BW” value in the test on FIT mRNA [1] (setting [10]) is on record as 199 ± 7 g; in the test with FIT mRNA [4] (not pair fed (jumbled group ad libitum fed), baseline, mean ± SEM) it was 408 ± 13 g; in the test with FIT mRNA [5] (setting [10]) it was 444 ± 37 g. Moreover, the “Day 1 ΔBW” value is reported as −4.5 ± 0.7^a g with FIT mRNA [1] (setting [11]) and −19.6 ± 2.9^b g in the test on FIT mRNA [5] (setting [11]). The “Day 2 ΔBW” value is on record as −5.7 ± 2.1^a g in the test with FIT mRNA [1] (setting [11]) and −28.8 ± 4.1^a,b g with FIT mRNA [5] (setting [11]). The figures for the “Day 3 ΔBW” value with FIT mRNA [1] (setting [11]) and in the test on FIT mRNA [5] (setting [11]) were −7.7 ± 1.8^a g and −34.4 ± 4.1^a,b g, respectively. In addition, the “Day 4 ΔBW” value in the test with FIT mRNA [1] (setting [11]) is given as −9.2 ± 1.5^a,b g; in the test on FIT mRNA [5] (setting [11]), −36.6 ± 6.7^a,b g. Further, the “Δ FI” value in the test on melanocortin receptor (48 hr food intake post minus pre injection, mean ± SEM) was 0.02 ± 0.01 g/g BW; at MC4R (24 hr food intake post minus pre injection), −0.01 ± 0.01^c g/g BW. Besides, in the test on melanocortin receptor (food intake relative to body weight, after ICV SHU9119 or vehicle injection, mean ± SEM), the “48 hr FI post injection” value is recorded as 0.09 ± 0.01^b,d g/g BW. In addition, the “48 hr FI pre injection” value in the test on melanocortin receptor (food intake relative to body weight, during ICV infusion, before SHU9119 or vehicle injection, mean ± SEM) was 0.07 ± 0.01^b g/g BW. Moreover, in the test with melanocortin receptor (relative to body weight), the “feeding response after SHU9119 injection compared to jumbled-treated or saline-treated rats” value was “significantly increased”. Besides, the FIT gene expression in the test with FIT mRNA [2] (ICV-treated Sprague Dawley rats, mean ± SEM) is reported as 6.6 ± 1.0^a arbitrary units. Moreover, the “FIT gene expression suppressed compared to jumbled-treated rats” value with FIT mRNA [2] (Sprague Dawley rats) stood at 20%. In the test with FIT mRNA [2] (Sprague Dawley rats), the “FIT gene expression suppressed compared to saline-treated rats” value was found to be 37%. The metabolic heat production result in the test with FIT mRNA [3] is “inability to reduce heat production”. In addition, in the test with FIT mRNA [4] (Sprague Dawley rats, TEE relative to whole body mass), the “ability to reduce TEE levels” value is listed as “unable to significantly reduce”. The “Food Intake” value with FIT mRNA [4] (setting [12]) was 36.4 ± 11.2^a g. In the test on FIT mRNA [4] (setting [12]), the “Δ BW” value is reported as −70.0 ± 8.6^a,b g. The “Δ TEE” value in the test on FIT mRNA [4] (not pair fed, mean ± SEM) is -67 ± 25 kJ/day/kg. Moreover, the “Post TEE” value with FIT mRNA [4] (not pair fed, total energy expenditure after ICV infusion, mean ± SEM) is 525 ± 22 kJ/day/kg. Further, the “Pre TEE” value in the test on FIT mRNA [4] (not pair fed, total energy expenditure before ICV infusion, mean ± SEM) is 592 ± 30 kJ/day/kg. Further, on MC4R (food intake after MT II or vehicle injection), the “24 hr FI post injection” value came out at 0.03 ± 0.01 g/g BW. For the same molecule, the “24 hr FI pre injection” value on MC4R (food intake, during ICV infusion, before MT II or vehicle injection) is 0.04 ± 0.01^d g/g BW.

B1: FIT-PR (FIT proline-rich region), yeast two-hybrid bait (other, not shown: small tags and cut ends)
chain: RPFPTGTPPPLPPKTVPATPPRTGSPLTVATGNDQAATEAKIEKPPSISDLDSIFGPVLSPKSVAVNTEETWVHFSDASPEHVTPELTPREKVVTPPAASDIPADSPTPGPPGPPGSAGPPGPPGPRNVPSPLNLEEVQKKVAEQTFIKDDYLETLSSPKECGLGQRATPPPPPPPTYRTVVSSPGPGSGSGTGTASGASSPARPATPLVPCSCSTPPPPPPRPPSRPKLPPGKPGVGDVSRPFSPPIHSSSPPPIAPL
notes: Truncated fragment of FIT used as bait in a yeast two-hybrid screen of a human brain cDNA library; also called AGT-121
As for B1, in the test with SH3GL2; endophilin 1, the binding result is on record as “binds”.
